Source: patent publication US7897582B2, “Oligonucleotide compositions and methods for the modulation of the expression of B7 protein” (Isis Pharmaceuticals, Inc., priority 2003, dated 2011)
Strand notation (5' to 3'): a small letter for the sugar, then the base; units joined by * are phosphorothioate-linked, units joined directly phosphodiester-linked; [ ] holds rarer units or linkages, { } end groups; capitals alone tell only the bases. e = 2'-O-(2-methoxyethyl) (MOE); [5mC] = 5-methylcytosine; d = 2'-deoxy (DNA)

Key:
[1] = tested on: Human B7-2 mRNA; test: Human B7-2 mRNA expression in electroporated THP-1 cells induced with LPS and dibutyryl cAMP; assay type: cell-based; settings: THP-1 cells electroporated at 10 micromolar oligonucleotide, LPS and dibutyryl cAMP (500 μM) 16 hours
Description: (§1) The human promonocytic leukaemia cell line, THP-1 (American Type Culture Collection, Manassas, Va.) was maintained in RPMI 1640 growth media supplemented with 10% fetal calf serum (FCS; Life Technologies, Rockville, Md.). A total of 1×10^7 cells were electroporated at an oligonucleotide concentration of 10 micromolar in 2 mm cuvettes, using an Electrocell Manipulator 600 instrument (Biotechnologies and Experimental Research, Inc.) employing 200 V, 1000 μF. Electroporated cells were then transferred to petri dishes and allowed to recover for 16 hrs Cells were then induced with LPS and dibutyryl cAMP (500 μM) for 16 hours. RNA was isolated and processed as described in previous examples.

[2] = tested on: Human B7-1 mRNA; test: Human B7-1 mRNA expression in electroporated, LPS-induced THP-1 cells; assay type: cell-based; settings: THP-1 cells electroporated at 10 micromolar oligonucleotide, LPS 1 μg/ml 16 hours
Description: as §1, with “hrs.” for “hrs”, “at a final concentration of 1 μg/ml” for “and dibutyryl cAMP (500 μM)”

With “113157 (antisense eA*eG*e[5mC]*e[5mC]*e[5mC]*d[5mC]*d[5mC]*dT*dT*dA*dT*dT*dA*d[5mC]*dT*e[5mC]*eA*eT*eG*eG) [compound 113157]” the “% mRNA EXPRESSION” value [1] was 13% and the “% mRNA INHIBITION” value [1] was 87%.
In the case of “113159 (antisense eA*eG*eT*e[5mC]*eT*d[5mC]*d[5mC]*dT*d[5mC]*dT*dT*dG*dG*d[5mC]*dA*eT*eA*e[5mC]*eG*eG) [compound 113159]”, the “% mRNA EXPRESSION” value [1] is reported as 43% and the “% mRNA INHIBITION” value [1] is reported as 57%.
For “113160 (antisense e[5mC]*e[5mC]*e[5mC]*eA*eT*dA*dA*dG*dT*dG*dT*dG*d[5mC]*dT*d[5mC]*eT*eG*eA*eA*eG) [compound 113160]”, the “% mRNA EXPRESSION” value [1] was 09% and the “% mRNA INHIBITION” value [1] was 91%.
“113489 (antisense e[5mC]*e[5mC]*e[5mC]*eT*e[5mC]*d[5mC]*dA*dG*dT*dG*dA*dT*dG*dT*dT*eT*eA*e[5mC]*eA*eA) [compound 113489]” was tested, and the “% mRNA EXPRESSION” value [2] was 122%.
For “113490 (antisense eG*eA*eA*eG*eA*d[5mC]*d[5mC]*d[5mC]*dT*d[5mC]*d[5mC]*dA*dG*dT*dG*eA*eT*eG*eT*eT) [compound 113490]”, the “% mRNA EXPRESSION” value [2] was 183%.
In the case of “113491 (antisense e[5mC]*eG*eT*eA*eG*dA*dA*dG*dA*d[5mC]*d[5mC]*d[5mC]*dT*d[5mC]*d[5mC]*eA*eG*eT*eG*eA) [compound 113491]”, the “% mRNA EXPRESSION” value [2] is reported as 179%.
With “113492 (antisense eT*eT*e[5mC]*e[5mC]*e[5mC]*dA*dG*dG*dT*dG*d[5mC]*dA*dA*dA*dA*e[5mC]*eA*eG*eG*e[5mC]) [compound 113492]” the “% mRNA EXPRESSION” value [2] was 27% and the “% mRNA INHIBITION” value [2] was 73%.
With “113493 (antisense eT*eG*eG*e[5mC]*eT*dT*d[5mC]*dA*dG*dA*dT*dG*d[5mC]*dT*dT*eA*eG*eG*eG*eT) [compound 113493]” the “% mRNA EXPRESSION” value [2] was 488%.
With “113494 (antisense e[5mC]*e[5mC]*eT*e[5mC]*e[5mC]*dG*dT*dG*dT*dG*dT*dG*dG*d[5mC]*d[5mC]*e[5mC]*eA*eT*eG*eG) [compound 113494]” the “% mRNA EXPRESSION” value [2] was 77% and the “% mRNA INHIBITION” value [2] was 23%.
For “113495 (antisense eG*eG*eT*eG*eA*dT*dG*dT*dT*d[5mC]*d[5mC]*d[5mC]*dT*dG*d[5mC]*e[5mC]*eT*e[5mC]*e[5mC]*eG) [compound 113495]”, the “% mRNA EXPRESSION” value [2] was 43% and the “% mRNA INHIBITION” value [2] was 57%.
For “113496 (antisense eG*eA*eT*eG*eG*dT*dG*dA*dT*dG*dT*dT*d[5mC]*d[5mC]*d[5mC]*eT*eG*e[5mC]*e[5mC]*eT) [compound 113496]”, the “% mRNA EXPRESSION” value [2] was 71% and the “% mRNA INHIBITION” value [2] was 29%.
“113497 (antisense eA*eG*eG*eT*eA*dT*dG*dG*dA*d[5mC]*dA*d[5mC]*dT*dT*dG*eG*eA*eT*eG*eG) [compound 113497]” was tested, and the “% mRNA EXPRESSION” value [2] was 78% and the “% mRNA INHIBITION” value [2] was 22%.
“113498 (antisense eG*eA*eA*eA*eG*dA*d[5mC]*d[5mC]*dA*dG*d[5mC]*d[5mC]*dA*dG*d[5mC]*eA*e[5mC]*e[5mC]*eA*eA) [compound 113498]” was tested, and the “% mRNA EXPRESSION” value [2] was 37% and the “% mRNA INHIBITION” value [2] was 63%.
For “113499 (antisense e[5mC]*eA*eG*e[5mC]*eG*dT*dT*dG*d[5mC]*d[5mC]*dA*d[5mC]*dT*dT*d[5mC]*eT*eT*eT*e[5mC]*eA) [compound 113499]”, the “% mRNA EXPRESSION” value [2] was 25% and the “% mRNA INHIBITION” value [2] was 75%.
In the case of “113500 (antisense eG*eT*eG*eA*e[5mC]*d[5mC]*dA*d[5mC]*dA*dG*dG*dA*d[5mC]*dA*dG*e[5mC]*eG*eT*eT*eG) [compound 113500]”, the “% mRNA EXPRESSION” value [2] is reported as 83% and the “% mRNA INHIBITION” value [2] is reported as 17%.
For “113501 (antisense eA*eG*eA*eT*eG*d[5mC]*dG*dA*dG*dT*dT*dT*dG*dT*dG*e[5mC]*e[5mC]*eA*eG*e[5mC]) [compound 113501]”, the “% mRNA EXPRESSION” value [2] was 36% and the “% mRNA INHIBITION” value [2] was 64%.
With “113502 (antisense e[5mC]*e[5mC]*eT*eT*eT*dT*dG*d[5mC]*d[5mC]*dA*dG*dT*dA*dG*dA*eT*eG*e[5mC]*eG*eA) [compound 113502]” the “% mRNA EXPRESSION” value [2] was 26% and the “% mRNA INHIBITION” value [2] was 74%.
“113503 (antisense e[5mC]*eG*eG*eT*eT*d[5mC]*dT*dT*dG*dT*dA*d[5mC]*dT*d[5mC]*dG*eG*eG*e[5mC]*e[5mC]*eA) [compound 113503]” was tested, and the “% mRNA EXPRESSION” value [2] was 65% and the “% mRNA INHIBITION” value [2] was 35%.
With “113504 (antisense e[5mC]*eG*e[5mC]*eA*eG*dA*dG*d[5mC]*d[5mC]*dA*dG*dG*dA*dT*d[5mC]*eA*e[5mC]*eA*eA*eT) [compound 113504]” the “% mRNA EXPRESSION” value [2] was 46% and the “% mRNA INHIBITION” value [2] was 54%.
With “113505 (antisense e[5mC]*eT*eT*e[5mC]*eA*dG*d[5mC]*d[5mC]*dA*dG*dG*dT*dG*dT*dT*e[5mC]*e[5mC]*e[5mC]*eG*e[5mC]) [compound 113505]” the “% mRNA EXPRESSION” value [2] was 40% and the “% mRNA INHIBITION” value [2] was 60%.
For “113506 (antisense eT*eA*eA*e[5mC]*eG*dT*d[5mC]*dA*d[5mC]*dT*dT*d[5mC]*dA*dG*d[5mC]*e[5mC]*eA*eG*eG*eT) [compound 113506]”, the “% mRNA EXPRESSION” value [2] was 105%.
With “113507 (antisense eT*eT*e[5mC]*eT*e[5mC]*d[5mC]*dA*dT*dT*dT*dT*d[5mC]*d[5mC]*dA*dA*e[5mC]*e[5mC]*eA*eG*eG) [compound 113507]” the “% mRNA EXPRESSION” value [2] was 36% and the “% mRNA INHIBITION” value [2] was 64%.
For “113508 (antisense e[5mC]*eT*eG*eT*eT*dG*dT*dG*dT*dT*dG*dA*dT*dG*dG*e[5mC]*eA*eT*eT*eT) [compound 113508]”, the “% mRNA EXPRESSION” value [2] was 117%.
In the case of “113509 (antisense e[5mC]*eA*eT*eG*eA*dA*dG*d[5mC]*dT*dG*dT*dG*dG*dT*dT*eG*eG*eT*eT*eG) [compound 113509]”, the “% mRNA EXPRESSION” value [2] is reported as 62% and the “% mRNA INHIBITION” value [2] is reported as 38%.
For “113510 (antisense eA*eG*eG*eA*eA*dA*dA*dT*dG*d[5mC]*dT*d[5mC]*dT*dT*dG*e[5mC]*eT*eT*eG*eG) [compound 113510]”, the “% mRNA EXPRESSION” value [2] was 43% and the “% mRNA INHIBITION” value [2] was 57%.
With “113511 (antisense eT*eG*eG*eG*eA*dG*d[5mC]*dA*dG*dG*dT*dT*dA*dT*d[5mC]*eA*eG*eG*eA*eA) [compound 113511]” the “% mRNA EXPRESSION” value [2] was 48% and the “% mRNA INHIBITION” value [2] was 52%.
For “113512 (antisense eT*eA*eA*eG*eG*dT*dA*dA*dT*dG*dG*d[5mC]*d[5mC]*d[5mC]*dA*eG*eG*eA*eT*eG) [compound 113512]”, the “% mRNA EXPRESSION” value [2] was 73% and the “% mRNA INHIBITION” value [2] was 27%.
In the case of “113513 (antisense eG*eG*eT*e[5mC]*eA*dG*dG*d[5mC]*dA*dG*d[5mC]*dA*dT*dA*dT*e[5mC]*eA*e[5mC]*eA*eA) [compound 113513]”, the “% mRNA EXPRESSION” value [2] is reported as 48% and the “% mRNA INHIBITION” value [2] is reported as 52%.
“113515 (antisense eA*eG*eA*eT*e[5mC]*dT*dT*dT*dT*d[5mC]*dA*dG*d[5mC]*d[5mC]*d[5mC]*e[5mC]*eT*eT*eG*e[5mC]) [compound 113515]” was tested, and the “% mRNA EXPRESSION” value [2] was 184%.
“113516 (antisense eT*eT*eT*eG*eT*dT*dA*dA*dG*dG*dG*dA*dA*dG*dA*eA*eT*eG*e[5mC]*e[5mC]) [compound 113516]” was tested, and the “% mRNA EXPRESSION” value [2] was 83% and the “% mRNA INHIBITION” value [2] was 17%.
For “113517 (antisense eA*eA*eA*eG*eG*dA*dG*dA*dG*dG*dG*dA*dT*dG*d[5mC]*e[5mC]*eA*eG*e[5mC]*e[5mC]) [compound 113517]”, the “% mRNA EXPRESSION” value [2] was 201%.
In the case of “113518 (antisense e[5mC]*eA*eA*eG*eA*d[5mC]*dA*dA*dT*dT*d[5mC]*dA*dA*dG*dA*eT*eG*eG*e[5mC]*eA) [compound 113518]”, the “% mRNA EXPRESSION” value [2] is reported as 97% and the “% mRNA INHIBITION” value [2] is reported as 03%.
